Source: PMC7763113, “Design, synthesis, cytotoxic activity, and apoptosis inducing effects of 4- and N-substituted benzoyltaurinamide derivatives” (Turkish Journal of Chemistry, 2020)
Entries after “also recorded” stand apart in the source; their conditions may differ. Where two headings read alike, the source gives them in different places.

What was measured:
[1] = test system: MDA-MB-231 triple-negative breast cancer cells; experiment: MTT cytotoxicity assay, MDA-MB-231; type: cell-based, human; details: mean ± SD, read-out: Cytotoxic activity IC50, MDA-MB-231
Source text: (§1) The human neuroblastoma cells (SH-SY5Y), triple-negative breast cancer cells (MDA-MB-231), and human pancreatic cancer cells (Panc1) used in this study were purchased from the American Type Culture Collection (ATCC). The cells were suspended in complete Dulbecco’s modified Eagle medium (DMEM) (Life Technologies, Gibco BRL, Grand Island, NY) supplemented with 10% fetal bovine serum (FBS, Hyclone), 1% penicillin and streptomycin (100 U/mL, Invitrogen) and plated in cell culture dishes. The cultures were maintained at 37 °C in a 5% CO2 95% humidified atmosphere. After reaching 85% confluence, the cells were transferred to 96-well plates or culture dishes. For MTT assays, the cells were seeded into 96-well cell culture plates at a density of 2 × 10^3 cells per well and allowed to adhere for 24 h. The cells were treated with fresh medium containing experimental compounds (100, 10, 1 µM) and incubated in a 5% CO2 incubator for 48 and 72 h. For protein analysis, the cells were seeded into 6-well cell culture plates at a density of 0.5 x 10^6 cells/well and allowed to adhere to the surface for 24 h. The stock solutions of the test compounds (5 mM) were prepared in sterile DMSO, and these stocks were then appropriately diluted with the complete culture medium. DMSO levels were maintained below 1% in the test concentrations.
(§2) Briefly, following exposures, MTT (at a final concentration of 0.5 mg/mL) was added to each well, and plates were incubated for 2 h at 37 °C in a 5% CO2 humidified incubator. The reaction mixture was removed, and DMSO was added to each well. The plates were shaken at room temperature, and the absorbance was measured at 570 nm and 630 nm using a microplate reader (VersaMax, Molecular Devices, USA). Percent survival was plotted relative to vehicle control cells, which were normalized to 100% survival.

[2] = MTT cytotoxicity assay, MCF-10a (nontumorigenic); type: cell-based; details: MCF-10a nontumorigenic mammary cells, MCF-10a nontumorigenic human mammary cell line, mean ± SD, read-out: Cytotoxic activity IC50, MCF-10a
Source text: [The source words this procedure for another cell line and reports this cell line under the same test.] as §1, §2

[3] = test system: SH-SY5Y human neuroblastoma cells; experiment: MTT cytotoxicity assay, SH-SY5Y; type: cell-based; details: Homo sapiens, SH-SY5Y, mean ± SD, read-out: Cytotoxic activity IC50, SH-SY5Y
Source text: as §1, §2

[4] = test system: PANC-1 human pancreatic cancer cells; experiment: MTT cytotoxicity assay, PANC-1; type: cell-based; details: Homo sapiens, PANC-1, MTT, mean ± SD, read-out: Cytotoxic activity IC50, PANC-1
Source text: as §1, §2

[5] = test system: BAX, Bcl-2, Bcl-xL, caspase-3 and caspase-9 expression in MDA-MB-231 cell line; experiment: Western blot of apoptotic proteins, MDA-MB-231; type: cell-based, human; details: for BAX protein levels: after only 24 h; for increase of caspase-9 activity: after only 48 h, relative to control
Description: (§3) The cells (0.5 × 10^6 cell/well) were seeded into 6 well plates and incubated for 24 h, and then treated with selected experimental compounds for 24 h and 48 h. Following incubation, the cells were washed with ice-cold 1X PBS and lysed in 1X cell lysis buffer. These lysates were quantified using the BCA protein assay. Then, the cell lysates were analyzed by western blot.
(§4) On a 12% (w/v) tris-glycine denaturing gel, 20 μg protein was separated by electrophoresis, and then transferred to a PVDF membrane. After blocking, the membrane was incubated with primary antibodies, anti-Bax rabbit monoclonal antibody, anti-Bcl-2 rabbit monoclonal antibody, anti-Bcl-xL rabbit monoclonal antibody, anti-caspase-3 rabbit monoclonal antibody, and anti-caspase-9 rabbit monoclonal antibody (1:1000, Cell Signaling Technology) at 4 °C overnight. Following the incubation, the membrane was incubated with an anti-β-actin mouse monoclonal antibody (1:1000, Cell Signaling Technology) at room temperature for 1 h. After washing, the membrane was incubated with peroxidase-conjugated secondary antibodies for 1 h to visualize labeled proteins by enhanced chemiluminescence.

[6] = test system: BAX, Bcl-2, Bcl-xL, caspase-3 and caspase-9 expression in PANC-1 cell line; experiment: Western blot of apoptotic proteins, PANC-1; type: cell-based, human; details: at IC50, 24 and 48 h, vs control
Description: as §3, §4

SH-SY5Y cells = experiment: Annexin V-FITC/PI flow cytometry, SH-SY5Y; type: cell-based, human; details: 48 h, control 3.2%
Description: (§5) The cells were harvested after 48 h, washed with PBS, and analyzed using the Annexin V FITC/PI Apoptosis Detection kit (BioVision, Mountain View, CA, USA) with a benchtop flow cytometer (Accuri C6 flow cytometry, Becton Dickinson).

PANC-1 cells = experiment: Annexin V-FITC/PI flow cytometry, PANC-1; type: cell-based, human; details: at cytotoxic concentrations, 48 h
Description: as §5

MDA-MB-231 cells = experiment: Annexin V-FITC/PI flow cytometry, MDA-MB-231; type: cell-based, human; details: 48 h, control 1.2%
Description: as §5

SMILES	IC50 ([1]; Homo sapiens, MDA-MB-231, MTT) [µM]	IC50 [2] [µM]	IC50 [3] [µM]	IC50 [4] [µM]	melting point [°C]	IC50 ([1]; MTT) [µM]	BAX protein levels ([5]; Western blot)	increase of caspase-9 activity [5] [fold]	caspase-3 expression [6]	apoptotic cell ratios (SH-SY5Y cells) [%]	apoptotic cell ratios (Annexin V-FITC/PI result) (PANC-1 cells)	BAX expression [6]	Bcl-2 expression [6]	Bcl-xL expression [6]	caspase-9 expression [6]	percent of the positive apoptotic cells (MDA-MB-231 cells) [%]	caspase-3 expression (in words) ([5]; Western blot)	caspase-9 expression levels (in words) ([5]; Western blot)	decrease of Bcl-2 expression ([5]; after 24 and 48 h, compared to control)
NS(=O)(=O)CCNC(=O)c1ccccc1 [Compound 9, N-(2-sulfamoylethyl)benzamide]	99.8 ± 1.7	109 ± 1.1	81.1 ± 2.1	85.5 ± 1.7	162 to 163	–	–	–	–	–	–	–	–	–	–	–	–	–	–
NS(=O)(=O)CCNC(=O)c1ccc(Cl)cc1 [Compound 10, 4-Chloro-N-(2-sulfamoylethyl)benzamide]	77	172.1 ± 1.4	38.6 ± 1.6	89.1 ± 1.7	158 to 159	79.1 ± 1.3	significantly increased	1.12	effectively increased	–	–	–	–	–	–	–	–	–	–
COc1ccc(C(=O)NCCS(N)(=O)=O)cc1 [Compound 11, 4-Methoxy-N-(2-sulfamoylethyl)benzamide]	114 ± 1.3	81.1 ± 1.4	237.8 ± 1.7	83.8 ± 1.5	176 to 177	–	–	–	–	–	–	–	–	–	–	–	–	–	–
Cc1ccc(C(=O)NCCS(N)(=O)=O)cc1 [Compound 12, 4-Methyl-N-(2-sulfamoylethyl)benzamide]	81 ± 1.6	106 ± 1.4	79.5 ± 1.8	44.6 ± 1.9	181 to 182	–	–	–	–	–	–	–	–	–	–	–	–	–	–
COc1ccc(NS(=O)(=O)CCNC(=O)c2ccccc2)cc1 [Compound 13, N-(2-(N-(4-methoxyphenyl)sulfamoyl)ethyl)benzamide]	76.1 ± 1.6	217.8 ± 1.3	47.5 ± 1.5	17.9 ± 2.1	110 to 111	–	–	–	–	–	–	–	–	–	–	–	–	–	–
COc1ccc(NS(=O)(=O)CCNC(=O)c2ccc(Cl)cc2)cc1 [Compound 14, 4-Chloro-N-(2-(N-(4-methoxyphenyl)sulfamoyl)ethyl)benzamide]	19.9 ± 1.7	109 ± 1.2	26 ± 1.4	22.5 ± 1.7	160 to 161	–	significantly increased	1.18	increased	3.8	no significant changes; also recorded: negative	increased	decrease	decrease	increased	1.6	–	–	–
COc1ccc(NS(=O)(=O)CCNC(=O)c2ccc(OC)cc2)cc1 [Compound 15, 4-Methoxy-N-(2-(N-(4-methoxyphenyl)sulfamoyl)ethyl)benzamide]	33.9 ± 1.8	118 ± 1.4	39.9 ± 1.6	18.1 ± 1.6	112 to 113	–	significantly increased	–	opposite effect	3.9	no significant changes; also recorded: negative	–	–	opposite effect	opposite effect	1.4	increased	did not exert any effect	2- to 3 fold
COc1ccc(NS(=O)(=O)CCNC(=O)c2ccc(C)cc2)cc1 [Compound 16, N-(2-(N-(4-methoxyphenyl)sulfamoyl)ethyl)-4-methylbenzamide]	15.7 ± 1.9	132.9 ± 1.2	32.7 ± 1.7	21.4 ± 1.7	127 to 128	–	–	–	–	–	–	–	–	–	–	–	–	–	–
